System: patients with MDD and an inadequate response to an SSRI or SNRI
Experiment: Massachusetts General Hospital Sexual Functioning Index (MGH-SFI), Study ACP-103-042
Assay type: in vivo, human
Source text: “Massachusetts General Hospital Sexual Functioning Index (MGH-SFI)” is described, for instance, in Labbate and Lare, 2001, Psychother Psychosom. 70(4):221-225. This is a patient facing questionnaire that quantifies sexual dysfunction into 5 functional domains (“interest in sex,” “sexual arousal,” “ability to achieve orgasm,” “ability to maintain erection” (males only), and “sexual satisfaction”). Patients rate each item using a 6-point scale ranging from 1 (good function) to 6 (poor function). High scores indicate poor sexual functioning. […] The determination of the subject's status and eligibility for randomization in Stage 2 was made in a double-blind manner. […] Sexual functioning was assessed using the Massachusetts General Hospital Sexual Functioning Index or MGH-SFI (Labbate and Lare, 2001, Psychother Psychosom. 70(4):221-225). This is a patient facing questionnaire that quantifies sexual dysfunction into 5 functional domains (“interest in sex,” “sexual arousal,” “ability to achieve orgasm,” “ability to maintain erection” [malesonly], and “sexual satisfaction”). Patients rate each item using a 6-point scale ranging from 1 (good function) to 6 (poor function). The time frame for this scale is the past month. This scale was administered at baseline and Week 5 in both stages of the study. High scores indicate poor sexual functioning. In ACP-103-042 the mean scores for MGH-SFI at Baseline was calculated over all 5 domains for males and the 4 domains for females. For MGH-SFI (follow-up version) at Study Weeks 5 and 10, the mean was calculated in the same way as MGH-SFI at Baseline. […] Tables 10-27 summarize the detailed data of MGH-SFI individual items of the overall study group (Tables 10-15), the subgroup of age of <=50 (Tables 16-21) and the subgroup of age of >50 (Table 21-26). In Tables 9-26, ANCOVA=analysis of covariance; OC=observed cases; LSM=least squares mean; CI=confidence interval; SD=standard deviation; SE=standard error. Stage 1: Baseline=Study Week 0, Week 5=Study Week 5; Stage 2: Baseline=Study Week 5, Week 5=Study Weeks 10. LSM from the stage-specific ANCOVA analysis with the change from baseline as the outcome, treatment group as a factor, and the corresponding Baseline value as a covariate. 2-sided p-value for treatment difference from the stage-specific ANCOVA analysis. An treatment effect size (Cohen's d) is calculated using the formula: Effect Size=Least Square mean difference between PIM and PBO/SD. The corresponding 95% confidence interval for an effect size is calculated based on the theoretical probability distribution of the effect size. […] Tables 10-15 and 28-38 summarize the detailed data of MGH-SFI individual items of the overall study group (Tables 10-15), the female subgroup (Tables 33-37) and the male subgroup (Table 38-43). An treatment effect size (Cohen's d) is calculated using the formula: Effect Size=Least Square mean difference between PIM and PBO/SD. The corresponding 95% confidence interval for an effect size is calculated based on the theoretical probability distribution of the effect size. In Tables 10-15 and 28-38, ANCOVA=analysis of covariance; OC=observed cases; LSM=least squares mean; CI=confidence interval; SD=standard deviation; SE=standard error. Stage 1: Baseline=Study Week 0, Week 5=Study Week 5; Stage 2: Baseline=Study Week 5, Week 5=Study Weeks 10. LSM from the stage-specific ANCOVA analysis with the change from baseline as the outcome, treatment group as a factor, and the corresponding Baseline value as a covariate. 2-sided p-value for treatment difference from the stage-specific ANCOVA analysis. An treatment effect size (Cohen's d) is calculated using the formula: Effect Size=Least Square mean difference between PIM and PBO/SD. The corresponding 95% confidence interval for an effect size is calculated based on the theoretical probability distribution of the effect size.

[1] = subgroup <=50 years old, Stage 1, PIM 34 mg vs placebo
[2] = subgroup <=50 years old, Stage 2, PIM 34 mg
[3] = subgroup <=50 years old, Stage 2, PIM 34 mg vs placebo
[4] = subgroup >50 years old, Stage 1, PIM 34 mg
[5] = subgroup >50 years old, Stage 1, PIM 34 mg vs placebo

## CC(C)COc1ccc(CNC(=O)N(Cc2ccc(F)cc2)C2CCN(C)CC2)cc1 [pimavanserin, N-(4-Fluorophenylmethyl)-N-(1-methylpiperidin-4-yl)-N′-(4-(2-methylpropyloxy)phenylmethyl)carbamide]
[1]
  MGH-SFI 05: Overall Sexual Satisfaction, Effect Size (Cohen's d): 0.304
  MGH-SFI 06: Overall Improvement Since Last Medication Change, Effect Size (Cohen's d): 0.622
[2]
  MGH-SFI 04: (Men) Ability to Get and Maintain an Erection, Change from Baseline to Week 5 Mean (SE): −0.3 (0.48)
  MGH-SFI 04: (Men) Ability to Get and Maintain an Erection, Change from Baseline to Week 5 Median: −0.5
  MGH-SFI 04: (Men) Ability to Get and Maintain an Erection, Week 5 Mean (SE): 3.5 (0.50)
  MGH-SFI 04: (Men) Ability to Get and Maintain an Erection, Week 5 Median: 4.0
  MGH-SFI 05: Overall Sexual Satisfaction, Change from Baseline to Week 5 Mean (SE): −0.6 (0.34)
  MGH-SFI 05: Overall Sexual Satisfaction, Change from Baseline to Week 5 Median: −1.0
  MGH-SFI 05: Overall Sexual Satisfaction, Week 5 Mean (SE): 4.0 (0.39)
  MGH-SFI 05: Overall Sexual Satisfaction, Week 5 Median: 4.0
  MGH-SFI 06: Overall Improvement Since Last Medication Change, Week 5 Mean (SE): 3.8 (0.33)
  MGH-SFI 06: Overall Improvement Since Last Medication Change, Week 5 Median: 4.0
[3]
  MGH-SFI 04: (Men) Ability to Get and Maintain an Erection, Effect Size (Cohen's d): −0.526
  MGH-SFI 05: Overall Sexual Satisfaction, Effect Size (Cohen's d): 0.405
  MGH-SFI 06: Overall Improvement Since Last Medication Change, Effect Size (Cohen's d): 0.043
[4]
  MGH-SFI 02: Ability to Get Sexually Aroused or Excited, Change from Baseline to Week 5 Mean (SE): −0.9 (0.21)
  MGH-SFI 02: Ability to Get Sexually Aroused or Excited, Change from Baseline to Week 5 Median: −1.0
  MGH-SFI 02: Ability to Get Sexually Aroused or Excited, Week 5 Mean (SE): 3.9 (0.32)
  MGH-SFI 02: Ability to Get Sexually Aroused or Excited, Week 5 Median: 4.0
  MGH-SFI 03: Ability to Achieve Orgasm, Change from Baseline to Week 5 Mean (SE): −1.2 (0.33)
  MGH-SFI 03: Ability to Achieve Orgasm, Change from Baseline to Week 5 Median: 0.0
  MGH-SFI 03: Ability to Achieve Orgasm, Week 5 Mean (SE): 3.8 (0.33)
  MGH-SFI 03: Ability to Achieve Orgasm, Week 5 Median: 4.0
  MGH-SFI 04: (Men) Ability to Get and Maintain an Erection, Change from Baseline to Week 5 Mean (SE): 0.8 (0.48)
  MGH-SFI 04: (Men) Ability to Get and Maintain an Erection, Change from Baseline to Week 5 Median: 0.5
  MGH-SFI 04: (Men) Ability to Get and Maintain an Erection, Week 5 Mean (SE): 5.0 (0.71)
  MGH-SFI 04: (Men) Ability to Get and Maintain an Erection, Week 5 Median: 5.5
  MGH-SFI 05: Overall Sexual Satisfaction, Change from Baseline to Week 5 Mean (SE): −1.1 (0.34)
  MGH-SFI 05: Overall Sexual Satisfaction, Change from Baseline to Week 5 Median: 0.0
  MGH-SFI 05: Overall Sexual Satisfaction, Week 5 Mean (SE): 4.1 (0.34)
  MGH-SFI 05: Overall Sexual Satisfaction, Week 5 Median: 4.0
  MGH-SFI 06: Overall Improvement Since Last Medication Change, Week 5 Mean (SE): 3.3 (0.24)
  MGH-SFI 06: Overall Improvement Since Last Medication Change, Week 5 Median: 4.0
[5]
  MGH-SFI 02: Ability to Get Sexually Aroused or Excited, Effect Size (Cohen's d): 0.660
  MGH-SFI 03: Ability to Achieve Orgasm, Effect Size (Cohen's d): 0.869
